In US5075449A, “Method of optically resolving (±)-1-(3-pyridylcarbonyl)-5-methyl-2-pyrazoline” (Mitsui Toatsu Chemicals, Inc., priority 1988, dated 1991):

Tests used:
[1] = Acute toxicity (LD50), intravenous, rat; assay type: in vivo; settings: in vivo, iv, mortality up to 72 hours after administration
Procedure: (§1) The drug was intraveneously administered to rats and determined the mortality ratio up to 72 hours after the administration, to calculate 50% lethal dose (LD50) by acute toxicity according to the routine method.

[2] = tested on: infarcted lesions caused by the occlusion of middle cerebral artery in rat; assay: Effect on cerebral ischemic (infarcted) lesions caused by occlusion of middle cerebral artery in rat; assay type: in vivo, Rat (male Sprague Dawley); settings: rat MCA occlusion; for Infarcted lesions (ratio of infarcted lesions to total area) / Reduction ratio of infarcted lesions: i.v. infusion 10 mg/kg/hr for 24 hours; for Infarcted lesions (ratio of infarcted lesions to total area): TTC staining, control group 16.1, * P < 0.05, ** P < 0.001 to control; for Reduction ratio of infarcted lesions: infarcted lesions of control group defined as 100%
Procedure: (§2) Rat middle cerebral artery was occluded according to the method of Tamura et. al. (J. Cerebral Blood Flow and Metabolism, 53-60, 1981).
Male Sprague Dawley rats, aged 8 to 10 weeks, were occluded of their left middle cerebral artery under 2% halothane anesthesia. (-)-1-(3-Pyridylcarbonyl)-5-methyl-2-pyrazoline dissolved in 0.9% physiological saline was infused into rats through the caudal vein at a rate of 10 mg/kg/hr for 24 hours. A control group was intraveneously infused with 0.9% physiological saline for 24 hours. Rats were sacrificed to death 24 hours after the occlusion of the middle cerebral artery and brain was excised from each rat. After staining with TTC, the excised brain was cut in 6 identical parts from its top. Cross sections were photographed to measure the ratio of infarcted lesions to total area with a planimeter so that the reduction ratio of infarcted lesions by the drug administration was calculated, provided that the infarcted lesions of the control group was defined as 100%.

[3] = tested on: cerebral edema caused by the occlusion of rat middle cerebral artery; assay: Suppression of ischemic cerebral edema caused by occlusion of middle cerebral artery in rat; assay type: in vivo, Rat (male Sprague Dawley); settings: rat MCA occlusion; for Suppression ratio of cerebral edema: i.v. infusion through caudal vein 3 or 10 mg/kg/hr for 24 hours (dose not given), brain water content at 24 hours, * P < 0.05, ** P < 0.001 to control
Procedure: as §2
Male Sprague Dawley rats, aged 8 to 10 weeks, were occluded of their left middle cerebral artery under 2% halothane anesthesia. (-)-1-(3-Pyridylcarbonyl)-5-methyl-2-pyrazoline dissolved in 0.9% physiological saline was infused into rats through the caudal vein at a rate of 3 or 10 mg/kg/hr for 24 hours. Rats were sacrificed to death 24 hours after the occlusion of the middle cerebral artery and brain was excised from each rat to determine the water contents in the two cerebral hemispheres, left and right, by the wet and dry weighing method. The occlusion of middle cerebral artery was also conducted on the control group of rats, and they were subsequently infused with 0.9% physiological saline for 24 hours similarly in the drug-administered group. The suppressive ratio of cerebral edema was determined by the following equation. [formula] Cl: Water contents in left cerebral hemisphere of control group CR: Water contents in right cerebral hemisphere of control group
SL: Water contents in left cerebral hemisphere of drug-administered group
SR: Water contents in right cerebral hemisphere of drug-administered group

rats = assay: Acute toxicity (LD50), intravenous, rat; assay type: in vivo; settings: for Acute toxicity LD50: mortality up to 72 hours after administration, 4320 min
Procedure: as §1

[4] = literature: Anesthesiology, 47, 285, 1977; Nippon Rinsho, 43, 185, 1985; cited from earlier work

| SMILES | LD50 at 72 h [1] | Infarcted lesions (ratio of infarcted lesions to total area) [2] | Reduction ratio of infarcted lesions [2] | Suppression ratio of cerebral edema [3] | Acute toxicity LD50 (rats) | Acute toxicity (in words) (rats) | Effect on infarcted area (in words) ([2]; 10 mg/kg/hr for 24 hours) | Effect on cerebral edema (in words) [3] | Brain protective action / suppression of cerebral edema (in words) [4] |
| --- | --- | --- | --- | --- | --- | --- | --- | --- | --- |
| CC1CC=NN1C(=O)c1cccnc1 (racemic) [Racemic modification, (±)-1-(3-Pyridylcarbonyl)-5-methyl-2-pyrazoline] | 800 mg/kg | 11.0% | 32.0 | 18.7% |  |  |  |  |  |
| CC1CC=NN1C(=O)c1cccnc1 (single isomer, unassigned; (+)) [(+)-form, (+)-1-(3-Pyridylcarbonyl)-5-methyl-2-pyrazoline] |  |  |  | 15.7% | 400 mg/kg |  |  |  |  |
| CC1CC=NN1C(=O)c1cccnc1 (single isomer, unassigned; (-)) [(-)-form, (-)-1-(3-Pyridylcarbonyl)-5-methyl-2-pyrazoline] |  | 8.5% | 48.9 | 28.4% | 1200 mg/kg | less than that of the racemic modification or (+)-form | significantly reduced the infarcted area caused by the occlusion of rat middle cerebral artery and it acted more strongly than the racemic modification | significantly depressed cerebral edema caused by the occlusion of the middle cerebral artery in rats and it acted more strongly than the racemic modification or (+)-form |  |
| CCCC(C)C1(CC)C(=O)NC(=O)NC1=O (centres unmarked) [pentobarbital] |  |  |  |  |  |  |  |  | protective action of brain against cerebral ischemia |
